# From the supplement of paper PMC10307832
# Assays:
# Test in all cases: relative viability (nuclei count vs DMSO), 5 days (fraction); higher = more cells survive
# [1] = compound: Cn1c(=O)n(-c2ccc(C(C)(C)C#N)cc2)c2c3cc(-c4cnc5ccccc5c4)ccc3ncc21 [Dactolisib] + CS(=O)(=O)N1CCN(Cc2cc3nc(-c4cccc5[nH]ncc45)nc(N4CCOCC4)c3s2)CC1 [Pictilisib] (partner 1 µM)
# Procedure, shortened: (§1)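 Cells from lung cancer lines were seeded into 1536-well plates and, one day later, dosed by pin tool. Treatments were either a single drug or a fixed dose of an anchor drug with five library-drug doses (not always all listed) in √10 steps. After 5 days, nuclei were stained in a one-step fixation (final 0.05% Triton X-100, 1% formaldehyde, 1 ug/ml Hoechst) and counted on 4× images, and relative viability is the treated-to-vehicle nuclei ratio, as the median of duplicate plates.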
# [2] = compound: C1CCC(CC1)N(CCNCCC2=C3C(=C(C=C2)O)NC(=O)CO3)C(=O)CCNCCC4=CC(=C(C=C4)Cl)Cl [AZ505] + N=C(N)NC(=N)NCCc1ccccc1 [Phenformin] (partner 250 µM)
# Procedure, shortened: as §1
# [3] = compound: Cn1c(=O)n(-c2ccc(C(C)(C)C#N)cc2)c2c3cc(-c4cnc5ccccc5c4)ccc3ncc21 [Dactolisib] + CC(=O)Nc1cccc(-n2c(=O)n(C3CC3)c(=O)c3c(Nc4ccc(I)cc4F)n(C)c(=O)c(C)c32)c1 [Trametinib] (partner 0.02 µM)
# Procedure, shortened: as §1
# [4] = compound: Cn1c(=O)n(-c2ccc(C(C)(C)C#N)cc2)c2c3cc(-c4cnc5ccccc5c4)ccc3ncc21 [Dactolisib] + O=C(CCCCCCC(=O)Nc1ccccc1)NO [Vorinostat] (partner 1 µM)
# Procedure, shortened: as §1
Cell Line,relative viability ([1]; first compound 0.002 µM),relative viability ([1]; first compound 0.006325 µM),relative viability ([1]; first compound 0.02 µM),relative viability ([1]; first compound 0.06325 µM),relative viability ([1]; first compound 0.2 µM),relative viability ([2]; first compound 0.08 µM),relative viability ([2]; first compound 0.253 µM),relative viability ([2]; first compound 0.8 µM),relative viability ([2]; first compound 2.53 µM),relative viability ([2]; first compound 8 µM),relative viability ([3]; first compound 0.002 µM),relative viability ([3]; first compound 0.006325 µM),relative viability ([3]; first compound 0.02 µM),relative viability ([3]; first compound 0.06325 µM),relative viability ([3]; first compound 0.2 µM),relative viability ([4]; first compound 0.002 µM),relative viability ([4]; first compound 0.006325 µM),relative viability ([4]; first compound 0.02 µM),relative viability ([4]; first compound 0.06325 µM),relative viability ([4]; first compound 0.2 µM)
BEN,0.505,0.529,0.463,0.4,0.282,0.24,0.239,0.293,0.262,0.286,0.925,0.952,0.959,0.61,0.411,0.555,0.577,0.562,0.478,0.383
ChaGo-K-1,0.723,0.744,0.491,0.923,0.552,0.486,0.521,0.5,0.514,0.458,0.846,0.912,0.91,0.813,0.791,0.724,0.821,0.719,0.623,0.757
LK-2,0.479,0.547,0.499,0.33,0.251,0.387,0.43,0.514,0.713,0.427,0.609,0.761,0.554,0.225,0.21,0.317,0.247,0.294,0.239,0.213
NCI-H322M,0.504,0.564,0.34,0.448,0.461,0.75,0.756,0.718,0.728,0.826,0.583,0.561,0.447,0.436,0.44,0.941,0.862,0.734,0.599,0.609
NCI-H520,0.299,0.235,0.234,0.195,0.184,0.556,0.49,0.683,0.825,0.529,0.61,0.585,0.354,0.147,0.102,0.747,0.596,0.416,0.212,0.151
NCI-H1666,0.417,0.405,0.438,0.383,0.366,0.56,0.599,0.587,0.557,0.483,0.855,0.804,0.835,0.734,0.742,1.09,0.977,0.969,0.922,0.87
NCI-H1993,0.99,0.85,0.804,0.705,0.834,0.472,0.426,0.546,0.56,0.478,0.514,0.455,0.504,0.389,0.421,0.849,0.54,0.537,0.481,0.284
NCI-H1975,0.26,0.27,0.232,0.2,0.175,0.348,0.402,0.419,0.405,0.429,0.36,0.292,0.323,0.191,0.161,0.788,0.622,0.575,0.429,0.266
HCC-44,0.672,0.536,0.709,0.536,0.368,0.144,,0.294,0.247,0.207,1.14,1.13,1.08,0.952,0.737,1.12,1.14,1.21,1.14,0.885
